Results from patent US8466162B2, “5-alkynyl-pyridines” (Boehringer Ingelheim International GmbH, priority 2011, dated 2013).

Legend:
[1] = target: T1, PI3Kalpha (Homo sapiens, UniProt P42336); assay: Inhibition of PI3Kalpha-induced PIP-2 phosphorylation (filter-binding assay, 33P-ATP); format: biochemical; details: PI3 Kinase alpha (p85alpha/His-p110alpha), 1 μM ATP; read-out: IC50 PI3Kα
T1 construct: His (N); made in house; host or cells: SF9 insect cells (baculovirus co-infection)
Experimental: Biological Methods Inhibition of PI3Kalpha-Induced PIP-2 Phosphorylation
See also J. A. Engelman, Nature Reviews Cancer, 2009, 9, 550-562; A. Carnero, Expert Opin. Investig. Drugs, 2009, 18, 1265-1277 and P. Liu et al., Nature Reviews Drug Discovery, 2009, 8, 627-64.
Method Type: Filter-Binding-Assay
Aliquoted in desired amounts and stored at −80° C. […] Assay Procedure
The substrate-containing lipid vesicles are dissolved to a concentration of 0.637 mg lipid blend/ml assay buffer (with BSA, freshly added) in 50 ml Falcon ->keep on ice, followed by ultrasonication (pulse of 15 sec followed by a pause of 10 sec, 4×). Compounds are serially diluted in assay buffer+6% DMSO and 10 μl of each dilution is added per well of a 96-well plate (compounds are tested in duplicates) and mixed with 30 μl of the lipid vesicles containing PDGFR-Peptide (0.5 μM final) and PI3K alpha (25 ng/well final). The mixture is then incubated for 20 minutes at room temperature.
Subsequently, 20 μl of assay buffer containing 3 μM cold ATP and 0.5 μCi/20 μl 33P-ATP are added. The plates are then incubated at room temperature for 120 minutes (shaking with 300 rpm).
The reaction mix is transferred onto filter plates using “filtermate harvester” from Packard: filter plates are rinsed with PBS, then the reaction mix is filtered onto the filter plate, washed 5 times with PBS and are allowed to dry for 30-60 minutes at 50° C. The plate bottom is sealed with Perkin Elmer white adhesive foil and 25 μl/well Microscint0 are added, the top is covered with transparent adhesive foil and the plate is measured with Wallac Trilux 1450 Microbeta Counter.
As positive control serve wells containing vehicle controls (1% DMSO in assay buffer), showing non-inhibited kinase activity (high values). Wells containing assay buffer instead of enzyme can serve as control for background activity (low values).
Calculate IC50 values using the Smiley program (based on GrapPad Prism)

[2] = system: H460 cells; assay: alamarBlue H460 cell assay (antiproliferative/cytotoxicity); format: cell-based; details: NCI-H460; H460 human lung carcinoma cells
Text: (§1) The H460, MB453, U87, MCF7 and BT474 alamarBlue cell assays provide EC50 values indicative of the antiproliferative or cytotoxic effects of the compounds to respectively the H460 (human non small cell line cancer), MB-453 (breast cancer cell line), U87 (glioblastoma cell line), MCF7 (breast cancer cell line) and BT474 (breast cancer cell line). As known in the field, antiproliferative or cytotoxic effect against this cell lines would be expected to be indicative of activity in treating lung, breast and brain cancers. See R. Marone R et al. Biochim. Biophys. Acta. 2008 January; 1784(1):159-85. S. Yaguchi et al., J. Natl. Cancer Inst. 2006 Apr. 19; 98(8):545-56.
(§2) Method Type: Antiproliferative/Cytotoxicity
(§3) alamarBlue® is designed to provide a rapid and sensitive measure of cell proliferation and cytotoxicity in various human and animal cell lines. The assay is based on the reduction of alamarBlue in the reducing environment of living (metabolically active) cells. In the presence of added cytotoxic or antiproliferative compounds, the innate metabolic activity ceases.
(§4) AlamarBlue is soluble and stable in culture medium. Measurements are made fluorometrically by exciting at 530-560 nm and measuring emission at 590 nm. In reporting percent alamarBlue reduction by monitoring fluorescence, data are expressed as fluorescence emission intensity units as a function of time of incubation.
(§5) 3. Equipment • 96-well plates, flat bottom (Falcon, Cat. No.: 353072) • 96-well plates, U-shaped (Costar, Cat. No.: 3799) • CO2-Incubator • Microplate Reader, Spectramax Plus, Molecular Devices 4. Typical Procedure • Day 0: Seed 3000 BT-474 cells (IMDM/5% FCS, 1% NEAA, 1% Sodiumpyruvat) in 150 μl medium into a 96-well plate, flat bottom (include mediumblank). Incubate plates at 37° C. in a CO2 incubator overnight. • Day 1: Dilute compounds to a concentration 40 μM ->1:3 in medium, 10 dilution steps, in 96-well plates. • Add 50 μl per well of each dilution (total volume per well 200 μl; final conc. of cpds: 10 μM ->1:3). If required, test further dilutions. • All concentrations are tested in duplicates. • Controls: Cells w/o cpd. (+50 μl medium/DMSO). • Cells are incubated with compounds for 5-6 days. • Day 6 or 7: Add 25 μl of alamarBlue solution to each well and incubate for 8 hours at 37° C. Measure fluorescence by exciting at 530-560 nm and measuring emission at 590 nm 5. Evaluation • Subtract average value for medium blank from sample readings • Calculate EC50 using GraphPad Prism (Fifty)

[3] = system: MCF7 cells; assay: alamarBlue MCF7 cell assay (antiproliferative/cytotoxicity); format: cell-based; details: MCF7 human breast cancer cell line
Text: as §1, §2, §3, §4, §5

[4] = system: BT474 cells; assay: alamarBlue BT474 cell assay (antiproliferative/cytotoxicity); format: cell-based; details: BT-474 human breast cancer cell line, 5-6 days incubation
Text: as §1, §2, §3, §4, §5

T1 sequence (P27986 whole entry): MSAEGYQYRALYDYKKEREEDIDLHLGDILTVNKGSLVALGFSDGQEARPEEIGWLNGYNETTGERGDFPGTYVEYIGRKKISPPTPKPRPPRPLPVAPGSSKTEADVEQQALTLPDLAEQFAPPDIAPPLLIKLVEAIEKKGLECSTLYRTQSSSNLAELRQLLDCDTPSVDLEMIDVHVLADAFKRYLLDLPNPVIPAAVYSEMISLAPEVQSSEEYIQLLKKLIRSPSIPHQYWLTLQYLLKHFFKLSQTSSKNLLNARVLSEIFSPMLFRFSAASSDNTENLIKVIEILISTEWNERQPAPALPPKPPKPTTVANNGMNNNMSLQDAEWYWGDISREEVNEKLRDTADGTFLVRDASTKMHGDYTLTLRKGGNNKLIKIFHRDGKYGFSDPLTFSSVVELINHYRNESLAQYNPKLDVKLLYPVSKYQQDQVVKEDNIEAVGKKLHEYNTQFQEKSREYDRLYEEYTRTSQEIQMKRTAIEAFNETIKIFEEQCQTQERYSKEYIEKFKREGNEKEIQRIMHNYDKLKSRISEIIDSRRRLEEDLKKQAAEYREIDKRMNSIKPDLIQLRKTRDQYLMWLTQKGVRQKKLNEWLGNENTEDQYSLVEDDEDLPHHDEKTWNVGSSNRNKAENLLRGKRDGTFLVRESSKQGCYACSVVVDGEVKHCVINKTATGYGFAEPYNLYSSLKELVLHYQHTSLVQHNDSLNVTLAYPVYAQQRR
T1 sequence (P42336 whole entry): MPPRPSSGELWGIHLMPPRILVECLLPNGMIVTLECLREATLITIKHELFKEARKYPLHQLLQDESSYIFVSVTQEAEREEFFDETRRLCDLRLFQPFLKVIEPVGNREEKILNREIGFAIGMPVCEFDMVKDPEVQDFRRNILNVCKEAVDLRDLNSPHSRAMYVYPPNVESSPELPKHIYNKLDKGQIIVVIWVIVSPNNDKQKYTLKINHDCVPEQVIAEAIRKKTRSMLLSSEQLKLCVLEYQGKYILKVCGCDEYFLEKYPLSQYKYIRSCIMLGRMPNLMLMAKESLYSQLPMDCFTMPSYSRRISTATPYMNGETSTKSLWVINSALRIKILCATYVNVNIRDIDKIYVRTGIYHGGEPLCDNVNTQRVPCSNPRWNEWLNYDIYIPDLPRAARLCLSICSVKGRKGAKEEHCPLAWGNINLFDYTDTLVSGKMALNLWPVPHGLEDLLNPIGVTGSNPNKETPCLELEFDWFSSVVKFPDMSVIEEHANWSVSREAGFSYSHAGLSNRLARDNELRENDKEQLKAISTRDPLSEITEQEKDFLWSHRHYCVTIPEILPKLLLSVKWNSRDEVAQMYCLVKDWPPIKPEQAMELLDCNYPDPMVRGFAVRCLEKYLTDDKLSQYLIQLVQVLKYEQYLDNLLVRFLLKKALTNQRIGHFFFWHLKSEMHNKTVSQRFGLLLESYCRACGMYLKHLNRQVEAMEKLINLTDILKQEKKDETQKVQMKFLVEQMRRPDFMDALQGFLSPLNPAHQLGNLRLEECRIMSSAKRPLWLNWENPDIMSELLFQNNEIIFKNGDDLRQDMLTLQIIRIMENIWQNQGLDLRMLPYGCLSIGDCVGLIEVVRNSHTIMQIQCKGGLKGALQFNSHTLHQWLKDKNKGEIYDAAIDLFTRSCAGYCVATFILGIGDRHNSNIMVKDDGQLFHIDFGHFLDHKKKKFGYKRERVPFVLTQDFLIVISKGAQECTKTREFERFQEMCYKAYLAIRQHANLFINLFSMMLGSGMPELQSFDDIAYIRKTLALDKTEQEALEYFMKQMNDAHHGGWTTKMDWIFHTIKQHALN

SMILES	IC50 [1]	EC50 [2]	EC50 [3]	EC50 [4]
CCc1ncnc(-c2ccc(OC)c(OC)c2C)c1C#Cc1cnc(C)c(NS(C)(=O)=O)c1 [Example 24, N-{5-[4-(3,4-Dimethoxy-2-methyl-phenyl)-6-ethyl-pyrimidin-5-ylethynyl]-2-methyl-pyridin-3-yl}-methanesulfonamide]	28 nM	–	–	–
CCc1ncnc(-c2c(C)cccc2C)c1C#Cc1cnc(C)c(NS(C)(=O)=O)c1 [Example 58, N-{5-[4-(2,6-Dimethyl-phenyl)-6-ethyl-pyrimidin-5-ylethynyl]-2-methyl-pyridin-3-yl}-methanesulfonamide]	380 nM	–	–	–
CCc1ncnc(-c2ccccc2C)c1C#Cc1cnc(C)c(NS(C)(=O)=O)c1 [Example 60, N-[5-(4-Ethyl-6-o-tolyl-pyrimidin-5-ylethynyl)-2-methyl-pyridin-3-yl}-methanesulfonamide]	37 nM	–	–	–
CCc1ncnc(-c2cc(C#N)ccc2F)c1C#Cc1cnc(C)c(NS(C)(=O)=O)c1 [Example 66, N-{5-[4-(5-Cyano-2-fluoro-phenyl)-6-ethyl-pyrimidin-5-ylethynyl]-2-methyl-pyridin-3-yl}-methanesulfonamide]	34 nM	–	–	–
CCc1ncnc(-c2cc(C(F)(F)F)ccc2F)c1C#Cc1cnc(C)c(NS(C)(=O)=O)c1 [Example 67, N-{5-[4-Ethyl-6-(2-fluoro-5-trifluoromethyl-phenyl)-pyrimidin-5-ylethynyl]-2-methyl-pyridin-3-yl}-methanesulfonamide]	46 nM	–	–	–
CCc1ncnc(-c2cc(C(F)(F)F)ccc2OC)c1C#Cc1cnc(C)c(NS(C)(=O)=O)c1 [Example 68, N-{5-[4-Ethyl-6-(2-methoxy-5-trifluoromethyl-phenyl)-pyrimidin-5-ylethynyl]-2-methyl-pyridin-3-yl}-methanesulfonamide]	136 nM	–	–	–
CCc1ncnc(-c2cc(CN)ccc2F)c1C#Cc1cnc(C)c(NS(C)(=O)=O)c1 [Example 77, N-{5-[4-(5-Aminomethyl-2-fluoro-phenyl)-6-ethyl-pyrimidin-5-ylethynyl]-2-methyl-pyridin-3-yl}-methanesulfonamide]	150 nM	–	–	–
CCc1ncnc(-c2cccc(CN)c2F)c1C#Cc1cnc(C)c(NS(C)(=O)=O)c1 [Example 79, N-{5-[4-(3-Aminomethyl-2-fluoro-phenyl)-6-ethyl-pyrimidin-5-ylethynyl]-2-methyl-pyridin-3-yl}-methanesulfonamide]	44 nM	–	–	–
CCc1ncnc(-c2ccc(OC)c(OC)c2OC)c1C#Cc1cnc(C)c(NS(C)(=O)=O)c1 [Example 80, N-{5-[4-Ethyl-6-(2,3,4-trimethoxy-phenyl)-pyrimidin-5-ylethynyl]-2-methyl-pyridin-3-yl}-methanesulfonamide]	43 nM	–	–	–

The next compounds have a lower IC50 [1] than those just listed; values first:

IC50 [1]	SMILES	EC50 [2]	EC50 [3]	EC50 [4]
14 nM	CCS(=O)(=O)Nc1cc(C#Cc2c(C)nc(N)nc2-c2ccnc(C)c2)cnc1C [Example 20, Ethanesulfonic acid {5-[2-amino-4-methyl-6-(2-methyl-pyridin-4-yl)-pyrimidin-5-ylethynyl]-2-methyl-pyridin-3-yl}-amide]	1820 nM	–	–
12 nM	CCc1ncnc(-c2ccnc(C)c2)c1C#Cc1cnc(C)c(NS(=O)(=O)c2ccc(Br)cc2C)c1 [Example 97, 4-Bromo-N-{5-[4-ethyl-6-(2-methyl-pyridin-4-yl)-pyrimidin-5-ylethynyl]-2-methyl-pyridin-3-yl}-2-methyl-benzenesulfonamide]	–	–	1530 nM
6 nM	CCc1nc(N)nc(-c2cccc(CN(C)C)c2)c1C#Cc1cnc(C)c(NS(C)(=O)=O)c1 [Example 19, N-{5-[2-Amino-4-(3-dimethylaminomethyl-phenyl)-6-ethyl-pyrimidin-5-ylethynyl]-2-methyl-pyridin-3-yl}-methanesulfonamide]	–	313 nM	806 nM
2 nM	CCc1nc(N)nc(-c2cccnc2)c1C#Cc1cnc(C)c(NS(C)(=O)=O)c1 [Example 12, N-[5-(2-Amino-4-ethyl-6-pyridin-3-yl-pyrimidin-5-ylethynyl)-2-methyl-pyridin-3-yl]-methanesulfonamide]	1240 nM	–	–
2 nM	CCc1nc(N)nc(-c2cccc(F)c2)c1C#Cc1cnc(C)c(NS(C)(=O)=O)c1 [Example 16, N-{5-[2-Amino-4-ethyl-6-(3-fluoro-phenyl)-pyrimidin-5-ylethynyl]-2-methyl-pyridin-3-yl}-methanesulfonamide]	337 nM	–	–
2 nM	CCc1nc(N)nc(-c2ccccc2)c1C#Cc1cnc(C)c(NS(C)(=O)=O)c1 [Example 17, N-[5-(2-Amino-4-ethyl-6-phenyl-pyrimidin-5-ylethynyl)-2-methyl-pyridin-3-yl]-methanesulfonamide]	172 nM	–	–
2 nM	CCc1nc(N)nc(-c2ccc(CN3CCOCC3)cc2)c1C#Cc1cnc(C)c(NS(C)(=O)=O)c1 [Example 18, N-{5-[2-Amino-4-ethyl-6-(4-morpholin-4-ylmethyl-phenyl)-pyrimidin-5-ylethynyl]-2-methyl-pyridin-3-yl}-methanesulfonamide]	–	118 nM	260 nM
2 nM	CCc1nc(N)nc(-c2cccc(CN(C)C)c2)c1C#Cc1cnc(C)c(NS(=O)(=O)c2ccc(F)cc2F)c1 [Example 35, N-{5-[2-Amino-4-(3-dimethylaminomethyl-phenyl)-6-ethyl-pyrimidin-5-ylethynyl]-2-methyl-pyridin-3-yl}-2,4-difluoro-benzenesulfonamide]	–	–	–
2 nM	CCc1ncnc(-c2ccnc(C)c2)c1C#Cc1cnc(C)c(NS(=O)(=O)c2ccc(F)cc2Cl)c1 [Example 90, 2-Chloro-N-{5-[4-ethyl-6-(2-methyl-pyridin-4-yl)-pyrimidin-5-ylethynyl]-2-methyl-pyridin-3-yl}-4-fluoro-benzenesulfonamide]	–	–	–
1 nM	CCc1nc(N)nc(-c2ccc(C)nc2)c1C#Cc1cnc(C)c(NS(C)(=O)=O)c1 [Example 14, N-{5-[2-Amino-4-ethyl-6-(6-methyl-pyridin-3-yl)-pyrimidin-5-ylethynyl]-2-methyl-pyridin-3-yl}-methanesulfonamide]	305 nM	16 nM	89 nM
0.95 nM	CCc1nc(N)nc(-c2ccnc(C)c2)c1C#Cc1cnc(C)c(NS(C)(=O)=O)c1 [Example 15, N-{5-[2-Amino-4-ethyl-6-(2-methyl-pyridin-4-yl)-pyrimidin-5-ylethynyl]-2-methyl-pyridin-3-yl}-methanesulfonamide]	294 nM	40 nM	107 nM
0.74 nM	CCc1nc(N)nc(-c2ccc(C3CC3)nc2)c1C#Cc1cnc(C)c(NS(C)(=O)=O)c1 [Example 13, N-{5-[2-Amino-4-(6-cyclopropyl-pyridin-3-yl)-6-ethyl-pyrimidin-5-ylethynyl]-2-methyl-pyridin-3-yl}-methanesulfonamide]	141 nM	24 nM	132 nM
